Eight compounds from patent US7495027B2, “3-aryl-4-hydroxyfuranone compounds and the human and animal health use thereof” (Wyeth, priority 2003, dated 2009) can be followed below.

pIC50: −log10 of the molar value. Values after ≈ are worked out from the molar mass of the structure shown. Like-named read-outs stand apart in the source and are kept apart here.

Test [1] concerns the target T1, S. aureus Uridine-diphosphate-N-acetvimuramoyl: L-alanine lipase, MurC (Staphylococcus aureus, UniProt Q2FXJ0).
T1 sequence (Q2FXJ0 1-437): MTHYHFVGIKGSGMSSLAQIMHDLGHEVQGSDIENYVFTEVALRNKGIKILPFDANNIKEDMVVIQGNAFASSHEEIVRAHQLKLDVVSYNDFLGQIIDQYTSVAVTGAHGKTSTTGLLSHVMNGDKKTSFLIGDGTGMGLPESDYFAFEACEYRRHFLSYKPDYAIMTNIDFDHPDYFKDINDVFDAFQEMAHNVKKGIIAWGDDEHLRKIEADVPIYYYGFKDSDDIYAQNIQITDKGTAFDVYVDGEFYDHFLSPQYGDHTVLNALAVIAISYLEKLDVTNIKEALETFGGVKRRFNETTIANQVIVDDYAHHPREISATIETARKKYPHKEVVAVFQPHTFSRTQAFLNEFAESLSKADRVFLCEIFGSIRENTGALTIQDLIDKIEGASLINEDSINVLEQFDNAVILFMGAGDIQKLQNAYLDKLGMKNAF
In words: biochemical. The following applies: (S) S. aureus enzyme; read-out: MurC IC50 (converted). Here is the method: S. aureus and E. coli Uridine-diphosphate-N-acetvimuramoyl: L-alanine lipase, MurC
(§1) Preparation of Enzyme Solution:
A 1 mg/mL stock solution of MurC is prepared in a buffer consisting of 20 mM Tris/HCl (pH 8.5) with 2.5 μM BME. The stock solution is further diluted with the buffer to give a final enzyme concentration of 100 μg/mL for the E. coli stock solution and 70 μg/mL for the S. aureus stock solution.
(§2) Preparation of Test Compound Solutions:
(§3) All test solutions are prepared in DMSO as 10 mg/mL, then diluted with 50 mM Tris/HCl (pH 8.5) to 100 μg/mL.
(§4) Preparation of Stop Solution:
The stop solution is prepared by stirring 1 part 4.2% ammonium molydbate in 4N HCl with 2 parts 0.045% malachite green for 30 min.
In this evaluation, the inhibitory activity of a test compound against MurC, the enzyme which catalyzes the third step of bacterial cell wall bioxynthesis is determined. Experiments are performed by adding 2.5 μl buffer, 2.5 μl 0.5M NH4SO2, 5 μl 2 μM L-Ala, 5 μl enzyme solution and 6.5 μl test compound solution to each well in a 96-well microplate. After a pre-incubation period of 10 mins. at 23° C., 3.75 μl of a 0.75 μM solution of UDP-MurNac is added to each well. Following an incubation period of 10 mins. at 37° C., 210 μl stop solution and 50 μl of a 34% w/v sodium citrate solution are added and color is allowed to develop for 10 mins. at 23° C. (Lanzetta et al., Analytical Biochemistry, 1979, 95) Optical density readings are taken at 660 nm using a Molecular Devices Spectra Max 250 with Soft Max software. Controls are performed using the same procedure and omitting the addition of UDP-MurNac. […]
Using these values the IC50 is determined by linear regression analysis.

The target in test [2] is E. coli Uridine-diphosphate-N-acetvimuramoyl: L-alanine lipase, MurC (Escherichia coli, UniProt P17952). The test is described as follows: Inhibitory activity against MurC (E. coli). Format: biochemical. The following applies: (E) E. coli enzyme; for IC50: read-out: MurC IC50 (converted).
The target in test [3] is T2, S. aureus Uridine-diphosphate-N-acetylmuramoyl-L-alanine: D-glutamate liease, MurD (Staphylococcus aureus, UniProt Q2FZ92).
T2 sequence (Q2FZ92 1-449): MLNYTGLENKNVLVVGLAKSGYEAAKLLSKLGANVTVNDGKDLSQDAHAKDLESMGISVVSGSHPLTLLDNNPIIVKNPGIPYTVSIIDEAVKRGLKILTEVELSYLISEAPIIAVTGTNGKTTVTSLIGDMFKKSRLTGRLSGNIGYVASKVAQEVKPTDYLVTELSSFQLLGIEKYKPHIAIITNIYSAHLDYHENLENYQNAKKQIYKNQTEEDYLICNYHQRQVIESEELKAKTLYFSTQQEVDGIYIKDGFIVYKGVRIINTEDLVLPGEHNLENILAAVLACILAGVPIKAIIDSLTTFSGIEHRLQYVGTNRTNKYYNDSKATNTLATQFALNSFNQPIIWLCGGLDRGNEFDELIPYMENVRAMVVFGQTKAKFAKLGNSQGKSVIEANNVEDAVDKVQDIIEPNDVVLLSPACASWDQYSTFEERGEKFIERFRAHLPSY
In words: biochemical. The following applies: (S) S. aureus enzyme. As to the method:
S. aureus and E. coli Uridine-diphosphate-N-acetylmuramoyl-L-alanine: D-glutamate liease, MurD
as §1, §2, §3, §4
In this evaluation, the inhibitory activity of a test compound against MurD, the enzyme which catalyzes the fourth step of bacterial cell wall biosynthesis is determined.

Another test concerns staphylococci. In words: Minimum inhibitory concentration, microdilution broth method, staphylococci. Format: cell-based. Conditions: Mueller-Hinton broth, 18-22 hours at 35° C.; for MIC: Staphylococcus aureus. In outline: (§5)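 Strep: Mueller-Hinton + 5% horse blood (LHB). Enterococci, staph: Mueller-Hinton broth alone. Microdilution format per NCCLS M7-A5 2000; isolates include resistant clinical strains.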

For the next test, the system named is enterococci. In words: Minimum inhibitory concentration, microdilution broth method, enterococci. Format: cell-based. The following applies: Mueller-Hinton broth, 18-22 hours at 35° C.; for MIC: Enterococcus faecalis. In a few lines: as §5
For orientation: In broth dilution the organism is exposed to a series of concentrations in liquid medium.

The test system of the next test is Streptococci. The test is described as follows: Minimum inhibitory concentration, microdilution broth method, streptococci. It is filed as cell-based. The following applies: Mueller-Hinton broth with 5% horse blood, 18-22 hours at 35° C.; for MIC: S. pneumo GC 1894. In outline:
as §5

Test [4] has as its target E. coli UDP-N-acetylglucosamine enolpyruvoyl transferase, MurA (Escherichia coli, UniProt P0A749). The test is described as follows: biochemical. The following applies: (E) E. coli enzyme. As to the method:
Evaluation of the Inhibitory Activity of Test Compounds Against Enzymes which Catalyze Bacterial Cell Wall Biosynthesis
S. aureus and E. coli UDP-N-acetylglucosamine enolpyruvoyl transferase, MurA
as §1
The enzyme solution is prepared by admixing the following: 50 mM Tris/HCl pH 8.0, […] 1 M Tris, 5 mM DTT, […] 1 M DTT, 20% Glycerol 4 ml 50% Glycerol, add water to 10 ml.
as §4
A procedure similar to that described by C. […] Experiments are performed by adding a solution of test compound (in a mixture of dimethylsulfoxide and water) and an enzyme solution to a well. After a pre-incubation period of 10 mintues at 37° C., Tris/BME buffer and assay buffer are added. A start point optical density (OD0) reading is taken at 340 nm immediately following the addition of assay buffer. After incubation for 1 hr at 37° C., the stop solution is added and the color is allowed to develop for 30 minutes.

Test [5] has as its target E. coli Enopyruvyl-UPD-N-acetylglucosamine reductase, Mur B (Escherichia coli, UniProt P08373). The test is described as follows: biochemical. The following applies: (E) E. coli enzyme; for IC50: read-out: MurB IC50 (converted).
Test [6] concerns the target E. coli Uridine-diphosphate-N-acetylmuramoyl-L-alanine: D-glutamate liease, MurD (Escherichia coli, UniProt P14900). In words: biochemical. The following applies: (E) E. coli enzyme. In a few lines:
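Final buffer 83 mM Tris/HCl pH 8.0, 50 mM MgCl2, 2 mM ATP. Compounds from 10 mg/mL DMSO stocks diluted to 100 μg/mL in 50 mM Tris/HCl pH 8.5 (working solution, not final assay level).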

[7] abbreviates: S. aureus GC 1131, read-out: MIC S. aureus GC 1131.
Where [8] appears, read: S. aureus GC 4543, read-out: MIC S. aureus GC 4543.
Setting [9] is: E. faecalis GC 2242, read-out: MIC E. faecalis GC 2242.
Where [10] appears, read: E. faecalis GC 4555, read-out: MIC E. faecalis GC 4555.

Chain of E. coli Enopyruvyl-UPD-N-acetylglucosamine reductase, Mur B (P08373 whole entry): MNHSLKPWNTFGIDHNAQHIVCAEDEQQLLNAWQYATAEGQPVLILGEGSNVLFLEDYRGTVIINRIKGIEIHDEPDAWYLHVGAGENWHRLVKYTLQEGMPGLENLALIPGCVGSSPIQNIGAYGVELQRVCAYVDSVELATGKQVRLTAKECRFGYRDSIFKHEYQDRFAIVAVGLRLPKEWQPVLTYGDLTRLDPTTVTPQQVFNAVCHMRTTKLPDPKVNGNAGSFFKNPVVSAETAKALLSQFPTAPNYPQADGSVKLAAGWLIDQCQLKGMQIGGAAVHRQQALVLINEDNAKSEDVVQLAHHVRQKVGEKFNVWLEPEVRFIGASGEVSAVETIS
Chain of E. coli Uridine-diphosphate-N-acetylmuramoyl-L-alanine: D-glutamate liease, MurD (P14900 whole entry): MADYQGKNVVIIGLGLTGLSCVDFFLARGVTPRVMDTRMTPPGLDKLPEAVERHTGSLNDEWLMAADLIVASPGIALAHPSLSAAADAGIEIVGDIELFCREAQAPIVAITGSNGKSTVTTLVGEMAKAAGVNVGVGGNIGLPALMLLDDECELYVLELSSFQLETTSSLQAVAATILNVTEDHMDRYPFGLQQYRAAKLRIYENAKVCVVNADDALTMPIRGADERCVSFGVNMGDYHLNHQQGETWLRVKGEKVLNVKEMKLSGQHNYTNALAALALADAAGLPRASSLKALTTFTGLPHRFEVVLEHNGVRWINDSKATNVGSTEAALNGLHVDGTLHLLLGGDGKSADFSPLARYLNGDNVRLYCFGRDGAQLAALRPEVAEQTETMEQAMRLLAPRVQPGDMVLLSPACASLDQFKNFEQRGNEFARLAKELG
Chain of E. coli UDP-N-acetylglucosamine enolpyruvoyl transferase, MurA (P0A749 whole entry): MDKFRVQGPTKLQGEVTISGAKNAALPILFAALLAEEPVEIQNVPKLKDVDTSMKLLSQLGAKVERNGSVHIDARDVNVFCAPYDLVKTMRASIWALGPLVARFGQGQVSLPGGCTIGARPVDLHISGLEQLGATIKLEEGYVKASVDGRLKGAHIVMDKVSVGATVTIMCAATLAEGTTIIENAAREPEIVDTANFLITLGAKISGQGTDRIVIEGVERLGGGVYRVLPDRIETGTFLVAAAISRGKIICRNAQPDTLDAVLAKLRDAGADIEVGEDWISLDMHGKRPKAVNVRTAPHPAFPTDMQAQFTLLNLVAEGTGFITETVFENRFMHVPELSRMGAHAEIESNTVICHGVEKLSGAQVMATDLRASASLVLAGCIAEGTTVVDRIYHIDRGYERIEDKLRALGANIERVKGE
Chain of E. coli Uridine-diphosphate-N-acetvimuramoyl: L-alanine lipase, MurC (P17952 whole entry): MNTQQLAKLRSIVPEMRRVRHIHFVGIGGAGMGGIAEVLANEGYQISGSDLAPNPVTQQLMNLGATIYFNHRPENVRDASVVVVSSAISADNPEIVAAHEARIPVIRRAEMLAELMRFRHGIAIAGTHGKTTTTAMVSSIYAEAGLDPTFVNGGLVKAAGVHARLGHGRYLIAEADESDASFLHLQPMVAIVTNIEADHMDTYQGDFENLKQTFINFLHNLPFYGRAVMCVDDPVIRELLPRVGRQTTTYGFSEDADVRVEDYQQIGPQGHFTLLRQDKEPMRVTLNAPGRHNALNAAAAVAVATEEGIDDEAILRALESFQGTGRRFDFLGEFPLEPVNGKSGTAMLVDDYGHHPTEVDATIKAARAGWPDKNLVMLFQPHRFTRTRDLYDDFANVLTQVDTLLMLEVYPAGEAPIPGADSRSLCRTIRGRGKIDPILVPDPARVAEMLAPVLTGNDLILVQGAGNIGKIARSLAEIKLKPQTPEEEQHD

A word on the IC50: it is the point on the concentration scale where inhibition reaches its midpoint. As usually defined, the pIC50 is −log10 of the IC50, conventionally taken in molar units. Read a low pIC50 as a high IC50. Broadly, the MIC is the smallest concentration in the dilution series that meets the test's criterion for growth inhibition. `O=C1O/C(=C\c2cccc3ccccc23)C(O)=C1c1ccc(Cl)cc1` [Example 4, 3-(4-Chlorophenyl)-4-hydroxy-5-[(Z)-1-naphthylmethylidene]-furan-2-(5H)-one]: the IC50 in test [1] was 45.9 µM. Also, in test [2], the “MurC IC50” value worked out at 7 µg/mL. In addition, in test [3], the pIC50 is 4.16. Moreover, the MIC is 16 µg/mL (≈ 45.9 µM) with staphylococci (setting [7]); 16 µg/mL (≈ 45.9 µM) in the test with staphylococci (setting [8]); 8 µg/mL (≈ 22.9 µM) with enterococci (setting [9]); 32 µg/mL (≈ 91.7 µM) in the test on enterococci (setting [10]); 1 µg/mL (≈ 2.87 µM) against Streptococci.
Take `Cc1ccc(C2=C(O)/C(=C/c3ccc(-c4ccc(C)cc4)cc3)OC2=O)cc1` [Example 57]: the pIC50 is below 4.17 in test [4], 4.29 in test [3] and 4.34 in [6]. Moreover, the IC50 in test [5] is 16.3 µM; in [2], 54.3 µM. For the same compound, the MIC with staphylococci (setting [7]) was 32 µg/mL (≈ 86.9 µM); in the test on staphylococci (setting [8]), 4 µg/mL (≈ 10.9 µM); in the test with enterococci (setting [9]), 2 µg/mL (≈ 5.43 µM); with enterococci (setting [10]), 8 µg/mL (≈ 21.7 µM); against Streptococci, below 0.125 µg/mL.
For the compound `O=C1O/C(=C\c2ccc(-c3ccccc3F)cc2)C(O)=C1c1ccccc1F` [Example 58], the pIC50 in [4], in [3] and in test [6] was below 4.18 in each case. For the same compound, the 50% inhibitory concentration (IC50) in [5] was above 66.4 µM; in [2] it was 37.2 µM. Moreover, the MIC is 8 µg/mL (≈ 21.3 µM) in the test on staphylococci (setting [7]); 16 µg/mL (≈ 42.5 µM) in the test on staphylococci (setting [8]); 16 µg/mL (≈ 42.5 µM) in the test on enterococci (setting [9]); above 128 µg/mL with enterococci (setting [10]); below 0.125 µg/mL with Streptococci.
Take `N#Cc1cccc(-c2ccc(/C=C3\OC(=O)C(c4ccccc4C#N)=C3O)cc2)c1` [Example 59]: the pIC50 in test [4] was 4.36; in test [3] it was 4.89; in test [6], 4.89. In addition, the IC50 in test [5] and in test [2] was 15.4 µM throughout. Further, the MIC with staphylococci (setting [7]) was above 128 µg/mL; in the test with staphylococci (setting [8]), above 128 µg/mL; with enterococci (setting [9]) it was 8 µg/mL (≈ 20.5 µM); in the test on enterococci (setting [10]), 8 µg/mL (≈ 20.5 µM); with Streptococci, 32 µg/mL (≈ 82 µM).
With `Cc1ccccc1C1=C(O)/C(=C/c2ccc(-c3ccccc3C)cc2)OC1=O` [Example 60], the pIC50 is below 4.17 in [4], 4.22 in [3] and below 4.17 in [6]. The IC50 in [5] is above 67.9 µM; in [2] it was 38 µM. Also, the MIC in the test with staphylococci (setting [7]) is 16 µg/mL (≈ 43.4 µM); in the test with staphylococci (setting [8]) it was 16 µg/mL (≈ 43.4 µM); in the test with enterococci (setting [9]) it was 8 µg/mL (≈ 21.7 µM); with enterococci (setting [10]), 32 µg/mL (≈ 86.9 µM); with Streptococci it was 8 µg/mL (≈ 21.7 µM).
Turning to `O=C1O/C(=C\c2ccc(-c3ccccc3C(F)(F)F)cc2)C(O)=C1c1ccccc1C(F)(F)F` [Example 61], the pIC50 in test [4] is below 4.28; in [3] it was 4.40; in test [6], below 4.28. Besides, the figures for the IC50 in test [5] and in [2] were above 52.5 µM and 29.4 µM, respectively. Further, the MIC turned out to be 16 µg/mL (≈ 33.6 µM) with staphylococci (setting [7]); 16 µg/mL (≈ 33.6 µM) with staphylococci (setting [8]); 16 µg/mL (≈ 33.6 µM) with enterococci (setting [9]); 32 µg/mL (≈ 67.2 µM) in the test with enterococci (setting [10]); 8 µg/mL (≈ 16.8 µM) against Streptococci.
In the case of `CCOc1ccc(-c2ccc(C3=C(O)/C(=C/c4cccc(C(F)(F)F)c4)OC3=O)cc2)cc1` [Example 133], the pIC50 in [4] is 4.35; in [6], 4.31. In addition, the half-maximal inhibitory concentration (IC50) was 26.5 µM in [5] and 48.6 µM in test [2]. The MIC in the test with staphylococci (setting [7]) worked out at 32 µg/mL (≈ 70.7 µM); with staphylococci (setting [8]), 32 µg/mL (≈ 70.7 µM); in the test on enterococci (setting [9]) it was 8 µg/mL (≈ 17.7 µM); in the test with enterococci (setting [10]), 16 µg/mL (≈ 35.4 µM); against Streptococci it was 0.5 µg/mL (≈ 1.11 µM).
`N#Cc1ccc(C2=C(O)/C(=C/c3ccc(-c4ccc(C#N)cc4)cc3)OC2=O)cc1` [R=H, R1=4-CN—C6H4, R2=4-(4′-CN-biphenyl)]: the “MurA IC50” value in test [4] is listed as 7 (E) μg/mL. In addition, in [5], the “MurB IC50” value is recorded as 15 (E) μg/mL. In addition, in test [2], the “MurC IC50” value is recorded as 5 (E) μg/mL. The “MurD IC50” value in [3] was above 25 µg/mL; in test [6], 5 µg/mL. In addition, the “MIC S. aureus GC 1131” value with staphylococci (S. aureus GC 1131) is above 128 µg/mL. Besides, the “MIC S. aureus GC 4543” value in the test with staphylococci (S. aureus GC 4543) is above 128 µg/mL. Further, the “MIC E. faecalis GC 2242” value with enterococci (E. faecalis GC 2242) stood at 32 µg/mL (≈ 82 µM). The “MIC E. faecalis GC 4555” value against enterococci (E. faecalis GC 4555) was determined as 64 µg/mL (≈ 164 µM). In addition, the “MIC S. pneumo GC 1894” value with Streptococci turned out to be 64 µg/mL (≈ 164 µM).
